Measured values published in patent US20120197004A1, “NOVEL ANTI-MICROBIAL PEPTIDOMIMETIC COMPOUNDS AND METHODS TO CALCULATE ANTI-MICROBIAL ACTIVITY” (priority 2006, published 2012).
Values after ≈ are worked out from the molar mass of the structure shown. Like-named read-outs stand apart in the source and are kept apart here. Where a SMILES comes first, the peptide text is derived from it. [ ]: non-standard residue; d: D form. The star is where a group is joined. ξ: configuration not given here. Biotin = O=C1N[C@H]2[C@H](CS[C@H]2CCCCC(=O)*)N1; Oic = O=C(O)[C@@H]1C[C@@H]2CCCC[C@@H]2N1; Phe(4-Cl) = N[C@@H](Cc1ccc(Cl)cc1)C(=O)O; Phe(4-F) = N[C@@H](Cc1ccc(F)cc1)C(=O)O; Tic = O=C(O)[C@@H]1Cc2ccccc2CN1; ξTic = O=C(O)C1Cc2ccccc2CN1; ξOic = O=C(O)C1CC2CCCCC2N1; Orn = NCCC[C@H](N)C(=O)O; Dap = NC[C@H](N)C(=O)O; NH(CH2)3NH2 = NCCCN*; βAla = NCCC(=O)O

Key:
[1] = test system: Mycobacterium ranae (ATCC 110)
[2] = test system: red blood cells
[3] = test system: Bacillus subtillis (ATCC 43223); details: for MIC Bacillus Subtillis: ATCC 43223; for p(MIC) Bacillus Subtillis: -log(MIC)
[4] = test system: Salmonella typhimurium (ATCC 13311); details: for MIC Salmonella typhimurium: ATCC 13311; for p(MIC) Salmonella typhimurium: -log(MIC)
[5] = test system: Staphylococcus aureus Methicillin/Gentamicin/Tetracycline Resistant (ATCC 33592); details: for Minimum Inhibitory Concentration Staphylococcus aureus ME/GM/TC resistant: in vitro MIC, tested at 100, 30, 10, 3, 1, 0.3 and 0.1 μM in 1% DMSO; for p(MIC) Staphylococcus aureus ME/GM/TC resistant: -log(MIC); for MIC Staphylococcus aureus ME/GM/TC resistant: Minimal Inhibitory Concentration, tested at 100-0.1 in 1% DMSO; for Actual Bioactivity: p(MIC) used in Staphylococcus aureus QSAR model
[6] = in vitro; details: monkey, microsomes, pH 7.4
[7] = in vitro; details: mouse, microsomes, pH 7.4
[8] = in vitro; details: dog, microsomes, pH 7.4
[9] = in vitro; details: rat, microsomes, pH 7.4

## CC(=O)NCC(=O)N[C@@H](Cc1ccccc1)C(=O)N1Cc2ccccc2CC1C(=O)NCC(=O)NCC(=O)N[C@@H](CCCCN)C(=O)N1Cc2ccccc2CC1C(=O)NCC(=O)NCC(=O)N[C@@H](Cc1ccccc1)C(=O)N1Cc2ccccc2CC1C(=O)NCC(=O)NCC(=O)N[C@@H](CCCCN)C(=O)N1Cc2ccccc2CC1C(=O)N[C@@H](CCCCN)C(=O)N[C@@H](CCCCN)C(=O)N[C@@H](CCCCN)C(=O)N[C@@H](CCCCN)C(N)=O (stereo partly drawn) [FKAB-1Gg1, Ac-GF-Tic-G-GK-Tic-G-GF-Tic-G-GK-Tic-KKKK-CONH2] (Ac-GF[ξTic]GGK[ξTic]GGF[ξTic]GGK[ξTic]KKKK-NH2)
[1]; ATCC 110
  MIC Mycobacterium ranae: 30.00 µM (≈ 64.8 µg/mL)
[2]
  % hemolysis 100/25 μM (first value): 5.70%/
  % hemolysis 100/25 μM (second value): 3.80%
[3]
  MIC Bacillus Subtillis: 10.00 µM (≈ 21.6 µg/mL)
[4]
  MIC Salmonella typhimurium: 100 µM (≈ 216 µg/mL)

## CC(=O)NCCC(=O)N[C@@H](Cc1ccc(F)cc1)C(=O)N1Cc2ccccc2C[C@H]1C(=O)N1[C@H](C(=O)NCCC(=O)N[C@@H](CN)C(=O)N2Cc3ccccc3C[C@H]2C(=O)N2[C@H](C(=O)NCCC(=O)N[C@@H](Cc3ccc(F)cc3)C(=O)N3Cc4ccccc4C[C@H]3C(=O)N3[C@H](C(=O)NCCC(=O)N[C@@H](CN)C(=O)N4Cc5ccccc5C[C@H]4C(=O)N[C@@H](CN)C(=O)N[C@@H](CN)C(=O)N[C@@H](CN)C(=O)N[C@@H](CN)C(N)=O)C[C@@H]4CCCC[C@@H]43)C[C@@H]3CCCC[C@@H]32)C[C@@H]2CCCC[C@@H]21 [FBAB-1Gw, Ac-βAla-Fpa-Tic-Oic-βAla-Dpr-Tic-Oic-βAla-Fpa-Tic-Oic-βAla-Dpr-Tic-Dpr-Dpr-Dpr-Dpr-CONH2] (Ac-[βAla][Phe(4-F)][Tic][Oic][βAla][Dap][Tic][Oic][βAla][Phe(4-F)][Tic][Oic][βAla][Dap][Tic][Dap][Dap][Dap][Dap]-NH2)
[1]; ATCC 110
  Minimum Inhibitory Concentration Mycobacterium ranae: 100 µM
[4]; in vitro
  selectivity for Salmonella typhimurium over Mycobacterium ranae: 33 fold
  selectivity for Salmonella typhimurium over Staphylococcus aureus ME/GM/TC resistant: 10 fold

## CC(=O)NCC(=O)N[C@@H](Cc1ccccc1)C(=O)N1Cc2ccccc2C[C@H]1C(=O)N1[C@H](C(=O)NCC(=O)N[C@@H](CN)C(=O)N2Cc3ccccc3C[C@H]2C(=O)N2[C@H](C(=O)NCC(=O)N[C@@H](Cc3ccccc3)C(=O)N3Cc4ccccc4C[C@H]3C(=O)N3[C@H](C(=O)NCC(=O)N[C@@H](CN)C(=O)N4Cc5ccccc5C[C@H]4C(=O)N[C@@H](CN)C(=O)N[C@@H](CN)C(=O)N[C@@H](CN)C(=O)N[C@@H](CN)C(N)=O)C[C@@H]4CCCC[C@@H]43)C[C@@H]3CCCC[C@@H]32)C[C@@H]2CCCC[C@@H]21 [FKAB-1Gs, Ac-GF-Tic-Oic-G-Dpr-Tic-Oic-GF-Tic-Oic-G-Dpr-Tic-Dpr-DprDpr-Dpr-CONH2] (Ac-GF[Tic][Oic]G[Dap][Tic][Oic]GF[Tic][Oic]G[Dap][Tic][Dap][Dap][Dap][Dap]-NH2)
[1]; ATCC 110
  Minimum Inhibitory Concentration Mycobacterium ranae: 100 µM
[5]
  Minimum Inhibitory Concentration Staphylococcus aureus ME/GM/TC resistant: 10 μm μM

## CC(=O)NCC(=O)N[C@@H](Cc1ccccc1)C(=O)N1Cc2ccccc2C[C@H]1C(=O)N1[C@H](C(=O)NCC(=O)N[C@@H](CCCCN)C(=O)N2Cc3ccccc3C[C@H]2C(=O)N2[C@H](C(=O)NCC(=O)N[C@@H](Cc3ccccc3)C(=O)N3Cc4ccccc4C[C@H]3C(=O)N3[C@H](C(=O)NCC(=O)N[C@@H](CCCCN)C(=O)N4Cc5ccccc5C[C@H]4C(=O)N[C@@H](CCCCN)C(=O)N[C@@H](CCCCN)C(=O)N[C@@H](CCCCN)C(=O)N[C@@H](CCCCN)C(=O)NCCCN)C[C@@H]4CCCC[C@@H]43)C[C@@H]3CCCC[C@@H]32)C[C@@H]2CCCC[C@@H]21 [FKAB-1L, Ac-GF-Tic-Oic-GK-Tic-Oic-GF-Tic-Oic-GK-Tic-KKKK-CONH—CH2—CH2—CH2—NH2] (Ac-GF[Tic][Oic]GK[Tic][Oic]GF[Tic][Oic]GK[Tic]KKKK-{NH(CH2)3NH2})
[1]
  Actual Bioactivity: 5.000
[1]; ATCC 110
  MIC Mycobacterium ranae: 10.00 µM (≈ 25 µg/mL)
  Minimum Inhibitory Concentration Mycobacterium ranae: 10 µM
[3]
  p(MIC) Bacillus Subtillis: 5.52
  MIC Bacillus Subtillis: 3.00 µM (≈ 7.49 µg/mL)
[5]
  p(MIC) Staphylococcus aureus ME/GM/TC resistant: 5.00
  MIC Staphylococcus aureus ME/GM/TC resistant: 10.00 µM (≈ 25 µg/mL)
  Minimum Inhibitory Concentration Staphylococcus aureus ME/GM/TC resistant: 10 µM
  Actual Bioactivity: 5.000
[4]
  p(MIC) Salmonella typhimurium: 4.52
  MIC Salmonella typhimurium: 30 µM (≈ 74.9 µg/mL)

## CC(=O)NCC(=O)N[C@@H](Cc1ccccc1)C(=O)N1Cc2ccccc2C[C@H]1C(=O)N1[C@H](C(=O)NCC(=O)N[C@@H](CCCCN)C(=O)N2Cc3ccccc3C[C@H]2C(=O)N2[C@H](C(=O)NCC(=O)N[C@@H](Cc3ccccc3)C(=O)N3Cc4ccccc4C[C@H]3C(=O)N3[C@H](C(=O)NCC(=O)N[C@@H](CCCCN)C(=O)N4Cc5ccccc5C[C@H]4C(=O)N[C@@H](CCCN)C(=O)N[C@@H](CCCN)C(=O)N[C@@H](CCCN)C(=O)N[C@@H](CCCN)C(N)=O)C[C@@H]4CCCC[C@@H]43)C[C@@H]3CCCC[C@@H]32)C[C@@H]2CCCC[C@@H]21 [FKAB-1Gj, Ac-GF-Tic-Oic-GK-Tic-Oic-GF-Tic-Oic-GK-Tic-Orn-Orn-Orn-Orn-CONH2] (Ac-GF[Tic][Oic]GK[Tic][Oic]GF[Tic][Oic]GK[Tic][Orn][Orn][Orn][Orn]-NH2)
[1]
  Actual Bioactivity: 5.000
  Minimum Inhibitory Concentration Mycobacterium ranae: 10 µM
[1]; ATCC 110
  MIC Mycobacterium ranae: 10.00 µM (≈ 23.8 µg/mL)
[3]
  p(MIC) Bacillus Subtillis: 6.00
  MIC Bacillus Subtillis: 1.00 µM (≈ 2.38 µg/mL)
[5]
  p(MIC) Staphylococcus aureus ME/GM/TC resistant: 5.00
  MIC Staphylococcus aureus ME/GM/TC resistant: 10.00 µM (≈ 23.8 µg/mL)
  Minimum Inhibitory Concentration Staphylococcus aureus ME/GM/TC resistant: 10 µM
  Actual Bioactivity: 5.000
[4]
  p(MIC) Salmonella typhimurium: 5.00
  MIC Salmonella typhimurium: 10 µM (≈ 23.8 µg/mL)

## CC(=O)NCC(=O)N[C@@H](Cc1ccc(Cl)cc1)C(=O)N1Cc2ccccc2C[C@H]1C(=O)N1[C@H](C(=O)NCC(=O)N[C@@H](CCCCN)C(=O)N2Cc3ccccc3C[C@H]2C(=O)N2[C@H](C(=O)NCC(=O)N[C@@H](Cc3ccc(Cl)cc3)C(=O)N3Cc4ccccc4C[C@H]3C(=O)N3[C@H](C(=O)NCC(=O)N[C@@H](CCCCN)C(=O)N4Cc5ccccc5C[C@H]4C(=O)N[C@@H](CCCCN)C(=O)N[C@@H](CCCCN)C(=O)N[C@@H](CCCCN)C(=O)N[C@@H](CCCCN)C(N)=O)C[C@@H]4CCCC[C@@H]43)C[C@@H]3CCCC[C@@H]32)C[C@@H]2CCCC[C@@H]21 [FKAB-1Go1, Ac-G-Cph-Tic-Oic-GK-Tic-Oic-G-Cph-Tic-Oic-GK-Tic-KKKK-CONH2] (Ac-G[Phe(4-Cl)][Tic][Oic]GK[Tic][Oic]G[Phe(4-Cl)][Tic][Oic]GK[Tic]KKKK-NH2)
[1]; ATCC 110
  Minimum Inhibitory Concentration Mycobacterium ranae: 10 µM
[4]; in vitro MIC, tested at 100, 30, 10, 3, 1, 0.3 and 0.1 μM in 1% DMSO
  Minimum Inhibitory Concentration Salmonella typhimurium: not active

## CC(=O)NCC(=O)N[C@@H](Cc1ccccc1)C(=O)NCC(=O)N1C(C(=O)NCC(=O)N[C@@H](CCCCN)C(=O)NCC(=O)N2C(C(=O)NCC(=O)N[C@@H](Cc3ccccc3)C(=O)NCC(=O)N3C(C(=O)NCC(=O)N[C@@H](CCCCN)C(=O)NCC(=O)N[C@@H](CCCCN)C(=O)N[C@@H](CCCCN)C(=O)N[C@@H](CCCCN)C(=O)N[C@@H](CCCCN)C(N)=O)CC4CCCCC43)CC3CCCCC32)CC2CCCCC21 (stereo partly drawn) [FKAB-1Gf1, Ac-GF-G-Oic-GK-G-Oic-GF-G-Oic-GK-G-KKKK-CONH2] (Ac-GFG[ξOic]GKG[ξOic]GFG[ξOic]GKGKKKK-NH2)
[1]; ATCC 110
  MIC Mycobacterium ranae: 100.00 µM (≈ 203 µg/mL)
[2]
  % hemolysis 100/25 μM (first value): 3.30%/
  % hemolysis 100/25 μM (second value): 3.3%
[3]
  MIC Bacillus Subtillis: 30.00 µM (≈ 61 µg/mL)

## NCCCC[C@H](NC(=O)[C@H](CCCCN)NC(=O)[C@H](CCCCN)NC(=O)[C@H](CCCCN)NC(=O)C1Cc2ccccc2CN1C(=O)[C@H](CCCCN)NC(=O)CNC(=O)C1CC2CCCCC2N1C(=O)C1Cc2ccccc2CN1C(=O)[C@H](Cc1ccccc1)NC(=O)CNC(=O)C1CC2CCCCC2N1C(=O)C1Cc2ccccc2CN1C(=O)[C@H](CCCCN)NC(=O)CNC(=O)C1CC2CCCCC2N1C(=O)C1Cc2ccccc2CN1C(=O)[C@H](Cc1ccccc1)NC(=O)CNC(=O)CCCC[C@@H]1SC[C@@H]2NC(=O)N[C@@H]21)C(N)=O (stereo partly drawn) [FKAB-1Gl, Biotin-GF-Tic-Oic-GK-Tic-Oic-GF-Tic-Oic-GK-Tic-KKKK-CONH2] (Biotin-GF[ξTic][ξOic]GK[ξTic][ξOic]GF[ξTic][ξOic]GK[ξTic]KKKK-NH2)
[1]; ATCC 110
  Minimum Inhibitory Concentration Mycobacterium ranae: 10 µM
[6]
  remaining at 0.25 h, 1 μM: 80%
  remaining at 0.5 h, 1 μM: 77%
  remaining at 1 h, 1 μM: 77%
[7]
  remaining at 0.25 h, 1 μM: 96%
  remaining at 0.5 h, 1 μM: 87%
  remaining at 1 h, 1 μM: 78%
[5]
  Minimum Inhibitory Concentration Staphylococcus aureus ME/GM/TC resistant: 3 µM
[8]
  remaining at 0.5 h, 1 μM: 84%
  remaining at 1 h, 1 μM: 80%
[9]
  remaining at 0.25 h, 1 μM: 73%
  remaining at 0.5 h, 1 μM: 83%
  remaining at 1 h, 1 μM: 105%
